One may read the IC50 as the concentration that gives 50% inhibition.

In the test the target is T1, human acetyl-CoA carboxylase 2 (ACC2) (Homo sapiens, UniProt O00763).
T1 construct: The cDNA encoding amino acids 144 to 2458 of human acetyl-CoA carboxylase 2; made in house; host or cells: Sf9 insect cells (baculovirus, pFastBac1)
T1 sequence (O00763 144-2458): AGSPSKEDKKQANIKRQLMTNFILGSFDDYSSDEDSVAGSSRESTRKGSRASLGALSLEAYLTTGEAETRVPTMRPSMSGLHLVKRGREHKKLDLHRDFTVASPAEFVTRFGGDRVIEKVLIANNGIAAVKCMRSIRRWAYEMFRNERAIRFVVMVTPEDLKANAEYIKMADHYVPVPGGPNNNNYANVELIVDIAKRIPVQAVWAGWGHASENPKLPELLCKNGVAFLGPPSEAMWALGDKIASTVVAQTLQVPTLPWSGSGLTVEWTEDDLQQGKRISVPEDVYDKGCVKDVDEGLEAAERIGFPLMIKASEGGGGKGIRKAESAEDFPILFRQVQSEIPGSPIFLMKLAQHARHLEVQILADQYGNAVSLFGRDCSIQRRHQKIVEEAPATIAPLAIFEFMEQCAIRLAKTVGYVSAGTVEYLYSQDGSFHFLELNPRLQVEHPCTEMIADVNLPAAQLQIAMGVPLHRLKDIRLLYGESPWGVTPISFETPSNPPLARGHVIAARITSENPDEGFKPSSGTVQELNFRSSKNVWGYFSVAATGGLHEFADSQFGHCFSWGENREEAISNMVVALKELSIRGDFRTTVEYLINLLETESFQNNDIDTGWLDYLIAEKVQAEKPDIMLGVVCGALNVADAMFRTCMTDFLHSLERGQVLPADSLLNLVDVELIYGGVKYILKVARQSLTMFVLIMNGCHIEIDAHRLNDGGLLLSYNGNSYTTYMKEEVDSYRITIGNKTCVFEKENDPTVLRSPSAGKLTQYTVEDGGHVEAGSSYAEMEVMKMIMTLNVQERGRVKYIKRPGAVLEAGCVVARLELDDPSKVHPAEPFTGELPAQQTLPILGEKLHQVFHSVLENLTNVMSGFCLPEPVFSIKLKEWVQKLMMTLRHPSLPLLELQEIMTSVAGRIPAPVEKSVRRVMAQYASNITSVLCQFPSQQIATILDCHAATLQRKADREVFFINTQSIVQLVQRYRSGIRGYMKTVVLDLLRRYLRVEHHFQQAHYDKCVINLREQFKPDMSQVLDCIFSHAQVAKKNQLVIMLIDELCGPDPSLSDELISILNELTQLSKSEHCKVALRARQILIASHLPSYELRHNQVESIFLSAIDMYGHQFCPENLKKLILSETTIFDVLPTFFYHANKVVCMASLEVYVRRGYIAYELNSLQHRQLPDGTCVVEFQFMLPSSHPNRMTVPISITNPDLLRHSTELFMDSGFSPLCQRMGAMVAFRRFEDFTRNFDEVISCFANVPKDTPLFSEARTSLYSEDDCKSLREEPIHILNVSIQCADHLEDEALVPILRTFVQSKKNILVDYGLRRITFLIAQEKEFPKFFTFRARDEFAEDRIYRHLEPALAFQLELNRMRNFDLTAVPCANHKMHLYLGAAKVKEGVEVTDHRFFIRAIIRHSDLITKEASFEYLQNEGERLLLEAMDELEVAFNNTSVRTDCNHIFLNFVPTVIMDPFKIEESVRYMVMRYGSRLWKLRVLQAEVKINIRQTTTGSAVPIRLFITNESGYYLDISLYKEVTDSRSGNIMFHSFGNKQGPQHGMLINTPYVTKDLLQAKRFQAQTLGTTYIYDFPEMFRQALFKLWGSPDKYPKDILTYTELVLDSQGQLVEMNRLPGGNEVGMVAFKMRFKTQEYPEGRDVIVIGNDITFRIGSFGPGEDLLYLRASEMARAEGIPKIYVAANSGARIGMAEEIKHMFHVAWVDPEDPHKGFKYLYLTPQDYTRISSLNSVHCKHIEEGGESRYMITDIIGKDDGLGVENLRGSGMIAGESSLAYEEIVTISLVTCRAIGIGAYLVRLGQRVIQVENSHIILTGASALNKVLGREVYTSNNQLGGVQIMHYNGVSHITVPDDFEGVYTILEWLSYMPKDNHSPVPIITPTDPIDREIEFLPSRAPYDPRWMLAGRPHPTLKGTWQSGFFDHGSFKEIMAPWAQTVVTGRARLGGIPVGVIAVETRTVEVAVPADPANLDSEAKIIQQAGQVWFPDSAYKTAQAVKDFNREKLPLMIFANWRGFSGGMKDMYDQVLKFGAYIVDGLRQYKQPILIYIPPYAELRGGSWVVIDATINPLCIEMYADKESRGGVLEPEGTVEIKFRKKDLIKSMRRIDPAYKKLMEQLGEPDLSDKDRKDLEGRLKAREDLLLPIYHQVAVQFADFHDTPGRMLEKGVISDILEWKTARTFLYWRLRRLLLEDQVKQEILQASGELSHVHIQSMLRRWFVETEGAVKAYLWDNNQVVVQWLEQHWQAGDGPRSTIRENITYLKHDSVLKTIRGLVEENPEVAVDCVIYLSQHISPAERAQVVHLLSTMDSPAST
The experiment in a line: Acetyl-CoA carboxylase enzyme assay (malonyl-CoA formation by LC/MS/MS). Type of test: biochemical. The settings on record: recombinant human ACC2 (amino acids 144 to 2458), 50 μM acetyl-CoA, 120 μM ATP, 2 mM KHCO3. The text has this:
The cDNA encoding amino acids 144 to 2458 of human acetyl-CoA carboxylase 2 (ACC2, GenBank Accession # NM_001093) was cloned into the SalI and NotI sites of pFastBac1 (Invitrogen; Carlsbad, Calif.). The resulting plasmid was used to generate a recombinant ACC2 baculovirus that was amplified and titered according to the protocols in the Bac-to-Bac baculovirus expression system manual (Invitrogen). The titered virus was used to infect Sf9 cells grown in Ex-Cell 420 serum-free medium (JRH Biosciences; Lenexa, Kans.). At 48 hours post-infection, the cells were harvested and stored at −80° C. until purification. ACC2 was purified using ammonium sulfate precipitation and anion exchange chromatography.
The enzymatic assay was run as follows: 30 μL of reaction buffer (100 mM HEPES pH 7.5, 20 mM MgCl2, 20 mM potassium citrate, 2 mM DTT) was added to a 384-well microtiter plate followed by 2 μL of the test compound (or 100% DMSO control). ACC2 protein (10 μL of a 50 nM working solution) was added to plate, which was incubated at room temperature for 15 minutes. A 30 μL addition of substrate solution (50 μM acetyl-CoA, 120 μM ATP, 2 mM KHCO3) was used to initiate the reactions which were quenched with 6% acetic acid (40 μL). ACC catalyzed malonyl-CoA formation was detected by LC/MS/MS using a Cohesive Technologies LX Series multiplex LC/MS/MS system configured with four binary pumps (Agilent Technologies; Palo Alto, Calif.), a dual arm autosampler (Leap Technologies; Cary, N.C.), and one Quattro Micro triple quadrupole mass spectrometer (Waters, Milford, Mass.), all run by Aria Software version 1.5 (Cohesive Technologies; Franklin, Mass.). Four samples were injected (20 μL) onto four Phenosphere NEXT C18 30×2 mm 5 μm columns (Phenomenex; Torrance, Calif.), eluted by four separate pumps, running identical gradients, through a column switching manifold with the one outlet fitted to the electrospray (ESI) source. Malonyl-CoA was eluted with 5 mM ammonium acetate, pH 4.5 (Buffer A) and 100% acetonitrile (Buffer B) via a step gradient. Argon was used as the collision gas and the following species were monitored via MRM detection: malonyl-CoA (853.8>346.9), internal standard (A: [^13C3]-malonyl-CoA, 857>350). The lower limit of detection is 0.3 uM for malonyl-CoA in this assay.
Turning to `C[C@H](O)[C@@H](NC(=O)[C@H]1CC[C@H](NS(=O)(=O)c2ccc(C(F)(F)F)cc2)CC1)c1ccccc1` [Example 171, (1r,4S)—N-((1S,2R)-2-Hydroxy-1-phenylpropyl)-4-(4-(trifluoromethyl)phenylsulfonamido)cyclohexancarboxamide], the IC50 was found to be 90 nM.
On to `O=C1CN(C(=O)[C@H]2CC[C@H](NS(=O)(=O)c3ccc(-c4ccccc4)cc3)CC2)C(c2ccccc2)CN1` (some centres unmarked) [Example 428], for which the 50% inhibitory concentration (IC50) is 770 nM.
`C[C@@H](NC(=O)[C@H]1CC[C@H](NS(=O)(=O)c2ccc(-c3ccc(CNCC(=O)O)cc3)cc2)CC1)c1ccc(F)cc1` [Example 370]: the IC50 came to 10 nM.
Take `C[C@@H](NC(=O)[C@H]1CC[C@H](NS(=O)(=O)c2ccc(-c3ccc(CN4CCOCC4)cc3)cc2)CC1)c1ccc(F)cc1` [Example 359]: the half-maximal inhibitory concentration (IC50) was 52 nM.
On to `Cc1[nH]cnc1-c1ccc(S(=O)(=O)N[C@H]2CC[C@H](C(=O)N[C@H](C)c3ccc(F)cc3)CC2)cc1` [Example 339], for which the 50% inhibitory concentration (IC50) was 25 nM.
Regarding `C[C@@H](NC(=O)[C@H]1CC[C@H](NS(=O)(=O)c2ccc(-c3ccc(OCCN4CCOCC4)cc3)cc2)CC1)c1ccc(F)cc1` [Example 385], the 50% inhibitory concentration (IC50) amounted to 10 nM.
Turning to `CC(C)(O)[C@@H](NC(=O)[C@]1(C)CC[C@@H](NS(=O)(=O)c2ccc(C(F)(F)F)cc2)CC1)c1ccccc1` [Example 448, (1r,4S)—N—((S)-2-Hydroxy-2-methyl-1-phenylpropyl)-1-methyl-4-(4-(trifluoromethyl)phenylsulfonamido)cyclohexanecarboxamide], the IC50 was determined as 40 nM.
In the case of `O=C(N[C@@H](c1ccccc1)C(F)(F)F)[C@H]1CC[C@H](NS(=O)(=O)c2ccc(C(F)(F)F)cc2)CC1` [Example 72], the IC50 came out at 94 nM.
With `CC(C)(O)[C@@H](NC(=O)[C@H]1CC[C@H](NS(=O)(=O)c2ccc(C(F)(F)F)cc2)CC1)c1ccccc1` [Example 1, (1r,4S)—N—((S)-2-Hydroxy-2-methyl-1-phenylpropyl)-4-(4-(trifluoromethyl)phenylsulfonamido)cyclohexanecarboxamide] the figure was 25 nM.
With `C[C@@H](NC(=O)[C@H]1CC[C@H](NS(=O)(=O)c2ccc(-c3ccc(CCN)cc3)cc2)CC1)c1ccc(F)cc1` [Example 378], the half-inhibitory concentration (IC50) came out at 10 nM.
With `O=C(O)CCc1ccc(-c2ccc(S(=O)(=O)N[C@H]3CC[C@H](C(=O)N4CCN(c5ccccn5)CC4c4ccccc4)CC3)cc2)cc1` (some centres unmarked) [Example 414] the figure was 10 nM; with `O=C(O)CCc1ccc(-c2ccc(S(=O)(=O)N[C@H]3CC[C@H](C(=O)N4CCC[C@@H]4c4ccc(F)cc4)CC3)cc2)cc1` [Example 410], 90 nM.
`O=C(O)CCc1ccc(-c2ccc(S(=O)(=O)N[C@H]3CC[C@H](C(=O)N4CCOC[C@@H]4c4ccccc4)CC3)cc2)cc1` [Example 419]: the concentration for half-maximal inhibition (IC50) was found to be 25 nM.
As to `CC(C)(O)[C@@H](NC(=O)[C@H]1CC[C@H](NS(=O)(=O)c2ccc(-c3ccccc3)cc2)CC1)c1ccccc1` [Example 395], the 50% inhibitory concentration (IC50) was 10 nM.

For the origin of these results see patent publication US8394858B2, “Cyclohexane derivatives and uses thereof” (Novartis AG, priority 2009, dated 2013).
